Laboratory results reported in paper PMC4488699, “Proteasome as a Molecular Target of Microcystin-LR” (Toxins, 2015).
Where two headings read alike, the source gives them in different places. Numbered stars: 1 amine (or outer) side, 2 acyl side, 3 side chain; on linkers, the order of the positions; unused ones are H or OH. Bridge positions count the residues as written; N and C are the ends. Square brackets hold non-standard residues; d marks the D form. Peptide text beside a SMILES is read from it. * marks the point of attachment. Adda = CO[C@@H](Cc1ccccc1)[C@@H](C)/C=C(C)/C=C/[C@H](N[*:1])[C@H](C)C(=O)[*:2]; dAsp(3S-Me) = C[C@H](C(=O)[*:3])[C@@H](N[*:1])C(=O)[*:2]; d(γGlu) = O=C(O)[C@@H](CCC(=O)[*:2])N[*:1]; Cbz = O=C(OCc1ccccc1)*; NMeDha = C=C(NC)C(=O)O

Experiments:
PC-3-GFP^u cells = assay type: cell-based
animal cells = conditions: cited from earlier work
[1] = test system: serine/threonine protein phosphatases (PPs); conditions: cited from earlier work
[2] = test system: proteasome CT activity in PC-3-GFP^u whole cell extracts; assay type: cell-based
[3] = test system: proteasome TL activity in PC-3-GFP^u whole cell extracts; assay type: cell-based
protease = conditions: cited from earlier work
[4] = test system: proteasome TL activity in the liver of Gobiocypris rarus; conditions: in vivo
[5] = test system: proteasome PGPH activity in PC-3-GFP^u whole cell extracts; assay type: cell-based

Row | SMILES | GFP degradation / accumulation of ubiquitinated GFP (PC-3-GFP^u cells; MG-132 1 μM (positive control), 24 h, vs DMSO, fluorescence microscopy) | induction of oxidative stress (animal cells) | inhibition of serine/threonine protein phosphatases [1] | effect on cellular proteasome CT activity [2] | GFP degradation / accumulation of ubiquitinated GFP (PC-3-GFP^u cells) | inhibition of cellular proteasome TL activity [3] | degradation by protease (protease) | dose dependence of inhibition of proteasome TL activity in the liver [4] | inhibition rate of proteasome TL activity in the liver ([4]; pH 7.4) | effect on cellular proteasome PGPH activity [5]
1 | CC(C)C[C@@H](C=O)NC(=O)[C@H](CC(C)C)NC(=O)[C@H](CC(C)C)NC(=O)OCc1ccccc1 [MG-132] (Cbz-Leu-Leu-Leu-aldehyde) | GFP degradation was retarded and ubiquitinated GFP accumulated |  |  |  |  |  |  |  |  | 
2 | C=C1C(=O)N[C@H](C)C(=O)N[C@@H](CC(C)C)C(=O)N[C@@H](C(=O)O)[C@H](C)C(=O)N[C@@H](CCCNC(=N)N)C(=O)N[C@@H](/C=C/C(C)=C/[C@H](C)[C@H](Cc2ccccc2)OC)[C@H](C)C(=O)N[C@@H](C(=O)O)CCC(=O)N1C [MC-LR, microcystin-LR] (R[Adda][d(γGlu)][NMeDha][dA]L[dAsp(3S-Me)]-OH; lactam N-7) |  | induce oxidative stress in animal cells | inhibition to serine/threonine protein phosphatases | did not evidently change | Ubiquitinated GFP also accumulated | 34% | cannot be degraded by protease | dose-dependently inhibited | 43% | slightly inhibited
